Laboratory results from paper PMC11645267, “Novel pharmacologic inhibition of lysine-specific demethylase 1 as a potential therapeutic for glioblastoma” (Cancer Gene Therapy, 2024).

Legend:
[1] = test system: GSC1228, GSC222, and GSC316; assay: Western blot of global histone modifications; type: cell-based; conditions: 5 μM, 96 h; changes not statistically significant
Method: The effects of S2172 on global histone modifications in GSCs were examined using western blot analysis. GSC cells were treated with 5 μM of S2172 since […] of the cells are still viable at this concentration (Fig. 2, Supplementary Fig. S1E). […] Treatment of GSCs with S2172 increased the overall levels of H3K4me2 as well as H3K9me2. However, these changes were not statistically significant (Fig. 2A, B).
Fig. 2 S2172 affected H3K4me2 modifications. A Western blot analysis of H3K4me1, H3K4me2, H3K4me3, H3K9me2, and H3 after treatment with either DMSO or S2172 (5 μM) for 96 h in GSC1228, GSC222, and GSC316. Histone H3 was used as the loading control. B Quantification of band signal intensities from the western blot of A. The y-axis in the panel indicates relative signal intensity of each protein normalized to histone H3. Error bars indicate the SD. […]
The density of bands was quantified using ImageJ software (https://imagej.nih.gov/ij/). […]
When mice were scanned with MRI, mice were anesthetized with isoflurane (3% in air) and placed in MRS 3017 Benchtop MRI Systems (MR Solutions, Guildford, UK). Using MRI images, tumor volumes were obtained by compiling tumor areas from all slices that contained tumors and calculated by ImageJ software (https://imagej.nih.gov/ij/) {Towner, […]

F3 = assay: Stemness marker expression (qPCR, western blot); type: cell-based; conditions: F3, 5 μM, 96 h
From the text: Super-enhancers consist of enhancer clusters with abundant binding of transcription factors and are highly enriched with H3K27ac marks. The H3K4me2 increased regions included the MYC locus and H3K4me2 de novo regions comprised Nestin and SOX2 loci (Fig. 2F, Supplementary Fig. S5A). These regions were also identified as super-enhancers in GSCs using data from our previous study (Fig. 2F). Compared to the large increase in H3K4me2 in these regions, changes in H3K4me3 were subtle after S2172 treatment (only 2582 regions were acquired modification) (Fig. 2C). Increasing the me2/me3 ratio at H3K4 is associated with reduced gene expression. […]
instructions. For GSC cells, the CellTiter-Glo 3D Viability Assay (Promega, Madison, WI, USA) was used to measure the living cells. All proliferation experiments were repeated […]
A. Left panel: Western blot analysis of H3K4me1, H3K4me2, H3K4me3, and H3K9me2 after treatment with either DMSO or S2172 5μM for 96 h in normal neural stem cell F3 . […] Right panel: Quantification of signal intensities of the Western blot. […]
C. […] Right panel: Quantification of band signal intensities from the Western blot.
Error bars indicate the SD; n = 3. […] The ratio was calculated by dividing the intensity of the cleaved PARP band by the full-length PARP band. […]

LSD1 = LSD1 (Homo sapiens, UniProt O60341); assay: Enzyme inhibition assay (in vitro peroxidase assay) against LSD1
Method: Enzyme inhibition assays against LSD1, LSD2, MAO-A, and MAO-B were performed as previously described [25]. Technical replicates, n = 3.

## NC1CCC(NC2CC2c2cc(F)cc(F)c2OCc2ccccc2)CC1 (centres unmarked) [S2172]
[1]
  overall levels of H3K4me2 and H3K9me2: increased
F3
  expression levels of stemness markers: not significantly affected
LSD1
  Ki: 270 ± 60 nM
LSD1; read-out: kinact LSD1
  kinact: 0.0026 ± 0.0002 s⁻¹
LSD1; read-out: kinact/Ki LSD1
  kinact/KI: 9800 ± 570 M⁻¹ s⁻¹
